Test results taken from ChEMBL document CHEMBL3102853, “Carbonic anhydrase inhibitors. Synthesis, and molecular structure of novel series N-substituted N'-(2-arylmethylthio-4-chloro-5-methylbenzenesulfonyl)guanidines and their inhibition of human cytosolic isozymes I and II and the transmembrane tumor-associated isozymes IX and XII” (Eur J Med Chem, 2014).
The source made the active and inactive calls. The calls are words filed in the database; no cut-off is given here.

Legend:
Format in all cases: functional
MDA-MB-468 [1] = assay: Cytotoxicity against human MDA-MB-468 cells
IGROV-1 = assay: Cytotoxicity against human IGROV1 cells
T47D [2] = assay: Cytotoxicity against human T47D cells
BT-549 = assay: Cytotoxicity against human BT549 cells
[3] = Cytotoxicity against human Hs 578T cells
MCF7 [4] = assay: Cytotoxicity against human MCF7 cells
MDA-MB-231 = assay: Cytotoxicity against human MDA-MB-231 cells
PC-3 [5] = assay: Cytotoxicity against human PC3 cells
A498 [6] = assay: Cytotoxicity against human A498 cells
OVCAR-8 = assay: Cytotoxicity against human OVCAR8 cells
OVCAR-3 [7] = assay: Cytotoxicity against human OVCAR3 cells
[8] = Cytotoxicity against human OVCAR4 cells
UACC-62 [9] = assay: Cytotoxicity against human UACC62 cells
[10] = Cytotoxicity against human UACC257 cells
SK-MEL-2 [11] = assay: Cytotoxicity against human SK-MEL-2 cells
SK-MEL-28 = assay: Cytotoxicity against human SK-MEL-28 cells
MDA-MB-435 = assay: Cytotoxicity against human MDA-MB-435 cells
M14 = assay: Cytotoxicity against human M14 cells
Malme-3M = assay: Cytotoxicity against human MALME-3M cells
LOX IMVI [12] = assay: Cytotoxicity against human LOXIMVI cells
SNB-19 = assay: Cytotoxicity against human SNB19 cells
SNB-75 [13] = assay: Cytotoxicity against human SNB75 cells
SF-268 [14] = assay: Cytotoxicity against human SF268 cells
KM12 [15] = assay: Cytotoxicity against human KM12 cells
SF-539 = assay: Cytotoxicity against human SF539 cells
HCT-116 = assay: Cytotoxicity against human HCT116 cells
HCC 2998 = assay: Cytotoxicity against human HCC2998 cells
NCI-H522 = assay: Cytotoxicity against human NCI-H522 cells
COLO 205 = assay: Cytotoxicity against human COLO205 cells
NCI-H460 [16] = assay: Cytotoxicity against human NCI-H460 cells
HOP-92 [17] = assay: Cytotoxicity against human HOP92 cells
RPMI-8226 [18] = assay: Cytotoxicity against human RPMI8226 cells
SR [19] = assay: Cytotoxicity against human SR cells
MOLT-4 [20] = assay: Cytotoxicity against human MOLT4 cells
K562 [21] = assay: Cytotoxicity against human K562 cells
CCRF-CEM = assay: Cytotoxicity against human CCRF-CEM cells
HL-60(TB) [22] = assay: Cytotoxicity against human HL-60(TB) cells
[23] = Cytotoxicity against human Hs 578T cells at 10 uM; details: read-out: GI
MDA-MB-468 [24] = assay: Cytotoxicity against human MDA-MB-468 cells at 10 uM; details: read-out: GI
MCF7 [25] = assay: Cytotoxicity against human MCF7 cells at 10 uM; details: read-out: GI
T47D [26] = assay: Cytotoxicity against human T47D cells at 10 uM; details: read-out: GI
DU-145 = assay: Cytotoxicity against human DU145 cells at 10 uM; details: read-out: GI
PC-3 [27] = assay: Cytotoxicity against human PC3 cells at 10 uM; details: read-out: GI
A498 [28] = assay: Cytotoxicity against human A498 cells at 10 uM; details: read-out: GI
NCI/ADR-RES = assay: Cytotoxicity against human NCI-ADR-RES cells at 10 uM
LOX IMVI [29] = assay: Cytotoxicity against human LOXIMVI cells at 10 uM; details: read-out: GI
OVCAR-3 [30] = assay: Cytotoxicity against human OVCAR3 cells at 10 uM; details: read-out: GI
UACC-62 [31] = assay: Cytotoxicity against human UACC62 cells at 10 uM; details: read-out: GI
SK-MEL-2 [32] = assay: Cytotoxicity against human SK-MEL-2 cells at 10 uM; details: read-out: GI
SF-268 [33] = assay: Cytotoxicity against human SF268 cells at 10 uM; details: read-out: GI
SW-620 = assay: Cytotoxicity against human SW620 cells at 10 uM; details: read-out: GI
SNB-75 [34] = assay: Cytotoxicity against human SNB75 cells at 10 uM; details: read-out: GI
KM12 [35] = assay: Cytotoxicity against human KM12 cells at 10 uM; details: read-out: GI
HT-29 = assay: Cytotoxicity against human HT-29 cells at 10 uM; details: read-out: GI
HOP-92 [36] = assay: Cytotoxicity against human HOP92 cells at 10 uM; details: read-out: GI
NCI-H460 [37] = assay: Cytotoxicity against human NCI-H460 cells at 10 uM; details: read-out: GI
A549 = assay: Cytotoxicity against human A549 cells at 10 uM; details: read-out: GI
SR [38] = assay: Cytotoxicity against human SR cells at 10 uM; details: read-out: GI
MOLT-4 [39] = assay: Cytotoxicity against human MOLT4 cells at 10 uM; details: read-out: GI
RPMI-8226 [40] = assay: Cytotoxicity against human RPMI8226 cells at 10 uM; details: read-out: GI
K562 [41] = assay: Cytotoxicity against human K562 cells at 10 uM; details: read-out: GI
HL-60(TB) [42] = assay: Cytotoxicity against human HL-60(TB) cells at 10 uM; details: read-out: GI
[43] = read-out: LC50 (the source's name)

Compound: Cc1cc(S(=O)(=O)NC(=N)Nc2ccc(S(N)(=O)=O)cc2)c(SCc2ccc(C(F)(F)F)cc2)cc1Cl
- GI50 (MDA-MB-468 [1]): 2.7 µM
- TGI (MDA-MB-468 [1]): 15 µM
- CC50 (MDA-MB-468 [1]; [43]): 81.6 µM
- GI50 (IGROV-1): 5.8 µM
- TGI (IGROV-1): 23.3 µM
- CC50 (IGROV-1; [43]): 93 µM
- GI50 (T47D [2]): 5.1 µM
- TGI (T47D [2]): 22.8 µM
- CC50 (T47D [2]; [43]): 95.8 µM
- GI50 (BT-549): 4.6 µM
- TGI (BT-549): 18.5 µM
- CC50 (BT-549; [43]): 58 µM
- GI50 [3]: 3.7 µM
- TGI [3]: 24.6 µM
- CC50 [3, 43]: > 100 µM
- GI50 (MCF7 [4]): 2.9 µM
- TGI (MCF7 [4]): 14.1 µM
- CC50 (MCF7 [4]; [43]): 69.7 µM
- GI50 (MDA-MB-231): 2.5 µM
- TGI (MDA-MB-231): 11.1 µM
- CC50 (MDA-MB-231; [43]): 37 µM
- GI50 (PC-3 [5]): 3.7 µM
- TGI (PC-3 [5]): 13.7 µM
- CC50 (PC-3 [5]; [43]): 40.9 µM
- GI50 (A498 [6]): 4.6 µM
- TGI (A498 [6]): 21.1 µM
- CC50 (A498 [6]; [43]): 53.7 µM
- GI50 (OVCAR-8): 4.6 µM
- TGI (OVCAR-8): 22.9 µM
- CC50 (OVCAR-8; [43]): 87.6 µM
- GI50 (OVCAR-3 [7]): 3.9 µM
- TGI (OVCAR-3 [7]): 14 µM
- CC50 (OVCAR-3 [7]; [43]): 39 µM
- GI50 ([8]; OVCAR-4): 3.9 µM
- TGI ([8]; OVCAR-4): 25.1 µM
- CC50 ([8]; OVCAR-4, read-out: LC50 (the source's name)): > 100 µM
- GI50 (UACC-62 [9]): 2.6 µM
- TGI (UACC-62 [9]): 10.4 µM
- CC50 (UACC-62 [9]; [43]): 33 µM
- GI50 ([10]; UACC-257): 3.6 µM
- TGI ([10]; UACC-257): 15.2 µM
- CC50 ([10]; UACC-257, read-out: LC50 (the source's name)): 41.1 µM
- GI50 (SK-MEL-2 [11]): 2.4 µM
- TGI (SK-MEL-2 [11]): 6.3 µM
- CC50 (SK-MEL-2 [11]; [43]): 25.3 µM
- GI50 (SK-MEL-28): 4.2 µM
- TGI (SK-MEL-28): 15.6 µM
- CC50 (SK-MEL-28; [43]): 46.6 µM
- GI50 (MDA-MB-435): 3.8 µM
- TGI (MDA-MB-435): 14.8 µM
- CC50 (MDA-MB-435; [43]): 46.1 µM
- GI50 (M14): 7.3 µM
- TGI (M14): 22 µM
- CC50 (M14; [43]): 56.3 µM
- GI50 (Malme-3M): 6.7 µM
- TGI (Malme-3M): 21 µM
- CC50 (Malme-3M; [43]): 52.5 µM
- GI50 (LOX IMVI [12]): 4.9 µM
- TGI (LOX IMVI [12]): 17.7 µM
- CC50 (LOX IMVI [12]; [43]): 48.4 µM
- GI50 (SNB-19): 5 µM
- TGI (SNB-19): 21.5 µM
- CC50 (SNB-19; [43]): 61.1 µM
- GI50 (SNB-75 [13]): 2.7 µM
- TGI (SNB-75 [13]): 17.4 µM
- CC50 (SNB-75 [13]; [43]): 66.1 µM
- GI50 (SF-268 [14]): 5.5 µM
- TGI (SF-268 [14]): 21.2 µM
- CC50 (SF-268 [14]; [43]): 64.8 µM
- GI50 (KM12 [15]): 3.1 µM
- TGI (KM12 [15]): 10.9 µM
- CC50 (KM12 [15]; [43]): 40.2 µM
- GI50 (SF-539): 4.8 µM
- TGI (SF-539): 18.3 µM
- CC50 (SF-539; [43]): 45.1 µM
- GI50 (HCT-116): 4 µM
- TGI (HCT-116): 15.4 µM
- CC50 (HCT-116; [43]): 45.9 µM
- GI50 (HCC 2998): 3.9 µM
- TGI (HCC 2998): 13.8 µM
- CC50 (HCC 2998; [43]): 46.2 µM
- GI50 (NCI-H522): 3.9 µM
- TGI (NCI-H522): 16.3 µM
- CC50 (NCI-H522; [43]): 48.5 µM
- GI50 (COLO 205): 4.4 µM
- TGI (COLO 205): 17.7 µM
- CC50 (COLO 205; [43]): 80.6 µM
- GI50 (NCI-H460 [16]): 4.2 µM
- TGI (NCI-H460 [16]): 18.5 µM
- CC50 (NCI-H460 [16]; [43]): 90 µM
- GI50 (HOP-92 [17]): 2.7 µM
- TGI (HOP-92 [17]): 8.6 µM
- CC50 (HOP-92 [17]; [43]): 33.9 µM
- GI50 (RPMI-8226 [18]): 3.1 µM
- TGI (RPMI-8226 [18]): 11 µM
- CC50 (RPMI-8226 [18]; [43]): > 100 µM
- GI50 (SR [19]): 2.1 µM
- TGI (SR [19]): 5.9 µM
- CC50 (SR [19]; [43]): > 100 µM
- GI50 (MOLT-4 [20]): 2.8 µM
- TGI (MOLT-4 [20]): 11.2 µM
- CC50 (MOLT-4 [20]; [43]): > 100 µM
- GI50 (K562 [21]): 3.6 µM
- TGI (K562 [21]): 21.1 µM
- CC50 (K562 [21]; [43]): > 100 µM
- GI50 (CCRF-CEM): 3.8 µM
- TGI (CCRF-CEM): 15.2 µM
- CC50 (CCRF-CEM; [43]): 86.2 µM
- GI50 (HL-60(TB) [22]): 2.1 µM
- TGI (HL-60(TB) [22]): 5.5 µM
- CC50 (HL-60(TB) [22]; [43]): 34.5 µM
- inhibition of growth at 10 µM [23]: 20%
- inhibition of growth at 10 µM (MDA-MB-468 [24]): 63%
- inhibition of growth at 10 µM (MCF7 [25]): 69%
- inhibition of growth at 10 µM (T47D [26]): 58%
- inhibition of growth at 10 µM (DU-145): 9%
- inhibition of growth at 10 µM (PC-3 [27]): 74%
- inhibition of growth at 10 µM (A498 [28]): 15%
- growth inhibition (GI) (NCI/ADR-RES): inactive
- inhibition of growth at 10 µM (LOX IMVI [29]): 29%
- inhibition of growth at 10 µM (OVCAR-3 [30]): 50%
- inhibition of growth at 10 µM (UACC-62 [31]): 49%
- inhibition of growth at 10 µM (SK-MEL-2 [32]): 43%
- inhibition of growth at 10 µM (SF-268 [33]): 31%
- inhibition of growth at 10 µM (SW-620): 12%
- inhibition of growth at 10 µM (SNB-75 [34]): 71%
- inhibition of growth at 10 µM (KM12 [35]): 50%
- inhibition of growth at 10 µM (HT-29): 22%
- inhibition of growth at 10 µM (HOP-92 [36]): 58%
- inhibition of growth at 10 µM (NCI-H460 [37]): 21%
- inhibition of growth at 10 µM (A549): 32%
- inhibition of growth at 10 µM (SR [38]): 72%
- inhibition of growth at 10 µM (MOLT-4 [39]): 60%
- inhibition of growth at 10 µM (RPMI-8226 [40]): 57%
- inhibition of growth at 10 µM (K562 [41]): 64%
- inhibition of growth at 10 µM (HL-60(TB) [42]): 66%
